Patent US12590062B2, “PD-1/PD-L1 inhibitors” (Gilead Sciences, Inc., priority 2017, dated 2026)

Columns and labels:
PD-1/PD-L1 = PD-1/PD-L1 (Homo sapiens, UniProt Q9NZQ7); experiment: PD-1/PD-L1 biochemical protein-protein interaction assay (ALPHA); assay type: binding; details: 0.3 nM His tagged PD-L1, 2.5 nM biotinylated Fc-PD-1, 60 minutes at 25° C., read-out: IC50 PD-L1-PD-1 Alpha IC50-mono PD-L1-fcP-D1
Outline: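 Extracellular-domain binding of His-tagged PD-L1 (0.3 nM final) to biotinylated Fc-PD-1 (2.5 nM final) was measured by ALPHA in 25 mM Hepes pH 7.4, 150 mM NaCl, 3.4 mM EDTA, 0.005% Tween 20, 0.01% BSA. After 60 min at 25° C, anti-His acceptor and streptavidin donor beads were added; IC50 from four-parameter fits.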

PD-1/PD-L1 interaction = molecular target: T1, PD-1/PD-L1 interaction (Homo sapiens, UniProt Q9NZQ7); experiment: PD-1/PD-L1 NFAT reporter co-culture assay; assay type: cell-based; details: Jurkat PD-1 NFAT-luciferase cells co-cultured with aAPC-PD-L1 CHO cells, 6 hrs at 37° C.; read-out: EC50 NFAT Luciferase
T1 construct: expressed in transfected cells; host or cells: CHO cells (aAPC-PD-L1) co-cultured with Jurkat cells overexpressing PD-1 and an NFAT-luciferase reporter
T1 sequence (Q9NZQ7 19-290): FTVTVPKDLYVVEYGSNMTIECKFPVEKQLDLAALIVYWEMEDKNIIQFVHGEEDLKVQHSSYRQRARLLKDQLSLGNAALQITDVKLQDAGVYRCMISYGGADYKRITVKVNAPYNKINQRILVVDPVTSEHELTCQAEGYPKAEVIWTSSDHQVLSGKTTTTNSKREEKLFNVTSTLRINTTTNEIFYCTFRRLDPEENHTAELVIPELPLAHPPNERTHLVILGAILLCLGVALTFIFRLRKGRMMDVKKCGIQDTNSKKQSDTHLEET
Outline: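 Compounds are scored by restoration of NFAT-luciferase signal in PD-1-expressing Jurkat cells cultured 6 h at 37 °C on CHO cells presenting anti-CD3 and PD-L1; EC50 values derive from four-parameter curve fitting.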

PD-L1 = molecular target: T2, PD-L1 (Homo sapiens, UniProt Q9NZQ7); experiment: PD-L1/PD-L1 dimerization biochemical protein-protein interaction assay (ALPHA); assay type: binding; details: compound-induced PD-L1 dimerization, head prints '1 nM' (0.5 nM His-tagged PD-L1 and 0.5 nM FLAG-tagged PD-L1), read-out: AC50 PDL1 Dimer Alpha 1 nM
T2 construct: determine if they can specifically dimerize the extracellular domains of PD-L1
T2 sequence (Q9NZQ7 19-238 limits assumed): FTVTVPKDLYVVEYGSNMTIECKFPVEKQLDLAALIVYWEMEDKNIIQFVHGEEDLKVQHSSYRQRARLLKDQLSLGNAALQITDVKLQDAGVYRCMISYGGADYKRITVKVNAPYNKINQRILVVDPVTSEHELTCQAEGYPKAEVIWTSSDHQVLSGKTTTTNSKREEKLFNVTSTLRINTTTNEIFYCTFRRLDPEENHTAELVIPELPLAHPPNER
T2 sequence (Q9NZQ7 19-238 limits assumed): as above
Outline: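 ALPHA proximity assay of compound-induced dimerization of 0.5 nM His-tagged and 0.5 nM FLAG-tagged PD-L1 extracellular domains in Hepes pH 7.4 buffer, 2 h at 25 °C. Anti-His acceptor then anti-FLAG donor beads, 60 min each; AC50 from four-parameter fit.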

PD-1/PD-L1, sequence (Q9NZQ7 19-238 limits assumed): as above

| Compound | IC50 (PD-1/PD-L1) [nM] | EC50 (PD-1/PD-L1 interaction) [nM] | AC50 (PD-L1) [nM] |
| --- | --- | --- | --- |
| COc1nc(-c2cccc(-c3cccc(COc4nc(OCc5cncc(C#N)c5)c(CN5CCCC[C@H]5C(=O)O)cc4Br)c3Cl)c2Cl)ccc1C1=NCCN1 [Example 543] | 0.07 | 187 | 49.7 |
| CS(=O)(=O)c1cncc(COc2nc(OCc3cccc(-c4cccc(-c5ccc6c(c5)C[C@@H](N)C6)c4Cl)c3Cl)c(Br)cc2CN2CCCC[C@H]2C(=O)O)c1 [Example 544] | 0.09 | 109 | 17.3 |
| CC(C)(NCc1cc(Br)c(OCc2cccc(-c3cccc(-c4ccc5c(c4)C[C@@H](N)C5)c3Cl)c2Cl)nc1OCc1cncc(S(C)(=O)=O)c1)C(=O)O [Example 545] | 0.089 | 145 | 24.4 |
| CS(=O)(=O)c1cncc(COc2nc(OCc3cccc(-c4cccc(-c5ccc6c(c5)C[C@@H](N)C6)c4Cl)c3Cl)c(Br)cc2CNC[C@@H](O)CC(=O)O)c1 [Example 546] | 0.515 | 109 | 39.2 |
| C[C@](CO)(NCc1cc(Br)c(OCc2cccc(-c3cccc(-c4ccc5c(c4)C[C@@H](N)C5)c3Cl)c2Cl)nc1OCc1cncc(S(C)(=O)=O)c1)C(=O)O [Example 547] | 0.363 | 51 | 20.1 |
| COc1nc(OCc2cccc(-c3cccc(-c4ccc5c(c4)C[C@@H](N)C5)c3Cl)c2Cl)c(Br)cc1CNC[C@H](O)CC(=O)O [Example 548] | 0.676 | 197 | 74.6 |
| COc1nc(OCc2cccc(-c3cccc(-c4ccc5c(c4)C[C@@H](N)C5)c3Cl)c2Cl)c(Br)cc1CN[C@](C)(CO)C(=O)O [Example 549] | 0.355 | 177 | 54.6 |
| C[C@@](CO)(NCc1cc(Br)c(OCc2cccc(-c3cccc(-c4ccc5c(c4)C[C@@H](N)C5)c3Cl)c2Cl)nc1OCc1cncc(S(C)(=O)=O)c1)C(=O)O [Example 550] | 0.134 | 163 | 47.7 |
| CC(C)(NCc1cc(Br)c(OCc2cccc(-c3cccc(-c4ccc5c(c4)C[C@@H](N)C5)c3Cl)c2Cl)nc1OCc1cncc(C#N)c1)C(=O)O [Example 551] | 0.064 | 100 | 12.4 |
| N#Cc1cncc(COc2nc(OCc3cccc(-c4cccc(-c5ccc6c(c5)C[C@@H](N)C6)c4Cl)c3Cl)c(Br)cc2CNC[C@@H](O)CC(=O)O)c1 [Example 552] | 0.716 | 152 | 74.7 |
| C[C@](CO)(NCc1cc(Br)c(OCc2cccc(-c3cccc(-c4ccc5c(c4)C[C@@H](N)C5)c3Cl)c2Cl)nc1OCc1cncc(C#N)c1)C(=O)O [Example 553] | 0.101 | 70 | 17.7 |
| C[C@@](CO)(NCc1cc(Br)c(OCc2cccc(-c3cccc(-c4ccc5c(c4)C[C@@H](N)C5)c3Cl)c2Cl)nc1OCc1cncc(C#N)c1)C(=O)O [Example 554] | 0.15 | 148 | 39.5 |
| COc1nc(-c2cccc(-c3cccc(COc4nc(OCc5cncc(C#N)c5)c(CNCCO)cc4Br)c3Cl)c2Cl)ccc1C1=NCCN1 [Example 555] | 0.396 | 84 | 23.1 |
| COc1nc(-c2cccc(-c3cccc(COc4nc(OCc5cncc(C#N)c5)c(CNC[C@@H]5CCC(=O)N5)cc4Br)c3Cl)c2Cl)ccc1C1=NCCN1 [Example 556] | 0.194 | 86 | 37.7 |
| Cc1c(COc2cc(OCc3cncc(C#N)c3)c(CN[C@@](C)(CO)C(=O)O)cc2Cl)cccc1-c1cccc(Nc2nccc3cc(CNCCO)cnc23)c1C [Example 557] | 0.201 | 135 | 137 |
| COc1nc(-c2cccc(-c3cccc(COc4nc(OCc5cncc(C#N)c5)c(CNC[C@@H](O)CC(=O)O)cc4Br)c3Cl)c2Cl)ccc1C1=NCCN1 [Example 558] | 0.065 | 51 | 33.6 |

| Compound | IC50 (PD-1/PD-L1) [nM] | EC50 (PD-1/PD-L1 interaction) [nM] | AC50 (PD-L1) [nM] |
| --- | --- | --- | --- |
| COc1nc(-c2cccc(-c3cccc(COc4nc(OCc5cncc(C#N)c5)c(CN[C@@](C)(CO)C(=O)O)cc4Br)c3Cl)c2Cl)ccc1C1=NCCN1 [Example 559] | 0.064 | 53 | 18.7 |
| N#Cc1cncc(COc2nc(OCc3cccc(-c4cccc(-c5ccc(OCCNCCO)cc5)c4Cl)c3Cl)c(Cl)cc2CN2C[C@@H](O)C[C@H]2C(=O)O)c1 [Example 560] | 0.135 | 163 | 77.8 |
| N#Cc1cncc(COc2nc(OCc3cccc(-c4cccc(-c5ccc(OCCNCCO)cc5)c4Cl)c3Cl)c(Cl)cc2CNC[C@@H](O)CC(=O)O)c1 [Example 561] | 0.531 | 146 | 193 |
| COc1nc(OCc2cccc(-c3cccc(COc4nc(OC)c(CNC[C@@H](O)CC(=O)O)cc4Br)c3C#N)c2Cl)c(Br)cc1CNC[C@@H](O)CC(=O)O [Example 562] | 0.102 | 162 | 126 |
| N#Cc1cc(C#N)cc(COc2nc(OCc3cccc(-c4cccc(-c5ccc(OCCN6CC7(CCC(=O)N7)C6)cc5)c4Cl)c3Cl)c(Cl)cc2CNC[C@@H](O)CC(=O)O)c1 [Example 565] | 0.259 | 112 | 73.4 |
| C[C@@](CO)(NCc1cc(Cl)c(OCc2cccc(-c3cccc(-c4ccc(OCCN5CC6(CCC(=O)N6)C5)cc4)c3Cl)c2Cl)nc1OCc1cc(C#N)cc(C#N)c1)C(=O)O [Example 566] | 0.11 | 86 | 39.4 |
| N#Cc1cc(C#N)cc(COc2nc(OCc3cccc(-c4cccc(-c5ccc(CN6CC7(CCC(=O)N7)C6)cc5)c4Cl)c3Cl)c(Cl)cc2CNC[C@@H](O)CC(=O)O)c1 [Example 567] | 0.327 | 85 | 68.7 |
| COc1nc(-c2cccc(-c3cccc(COc4nc(OCc5cc(C#N)cc(C#N)c5)c(CNC[C@@H](O)CC(=O)O)cc4Cl)c3Cl)c2Cl)ccc1CNC[C@@H]1CCC(=O)N1 [Example 568] | 0.064 | 65 | 44.3 |
| Cc1c(COc2cc(OCc3cncc(C#N)c3)c(CNC[C@@H](O)CC(=O)O)cc2Cl)cccc1-c1cccc(-c2ccc3c(CNC[C@@H](O)CC(=O)O)ccnc3c2)c1C [Example 569] | 0.085 | 74 | 128 |
| Cc1c(COc2cc(OCc3cncc(C#N)c3)c(CN[C@@](C)(CO)C(=O)O)cc2Cl)cccc1-c1cccc(-c2ccc(CNCCCS(N)(=O)=O)cc2)c1C [Example 570] | 0.092 | 115 | 56.5 |
| Cc1c(COc2cc(OCc3cncc(C#N)c3)c(CN[C@@](C)(CO)C(=O)O)cc2Cl)cccc1-c1cccc(-c2ccc(CNCCS(C)(=O)=O)cc2)c1C [Example 571] | 0.091 | 126 | 156 |
| Cc1c(COc2cc(OCc3cncc(C#N)c3)c(CNC[C@@H](O)CC(=O)O)cc2Cl)cccc1-c1cccc(-c2ccc(CN[C@H]3CCCNC3=O)cc2)c1C [Example 572] | 0.431 | 129 | 453 |
| Cc1c(COc2cc(OCc3cncc(C#N)c3)c(CN[C@@](C)(CO)C(=O)O)cc2Cl)cccc1-c1cccc(-c2ccc(CN[C@H]3CCCNC3=O)cc2)c1C [Example 573] | 0.154 | 120 | 215 |
| Cc1c(COc2cc(OCc3cncc(C#N)c3)c(CNC[C@@H](O)CC(=O)O)cc2Cl)cccc1-c1cccc(-c2ccc(CNC[C@@H]3CCC(=O)N3)cc2)c1C [Example 574] | 0.071 | 72 | 56 |
| Cc1c(COc2cc(OCc3cncc(C#N)c3)c(CN[C@@](C)(CO)C(=O)O)cc2Cl)cccc1-c1cccc(-c2ccc(CNC[C@@H]3CCC(=O)N3)cc2)c1C [Example 575] | 0.073 | 34 | 40.6 |
